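In this assay, cells in 96-well plates receive the compound at five concentrations for 48 hours. Endpoints are linearly interpolated between the surrounding concentrations. Here, GI50 denotes the concentration required for 50% inhibition of growth. TGI: concentration producing complete growth inhibition.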
How the values were obtained:
Test in all cases: NCI-60 cell line screen, 48 h
SF-268 CNS = test system: SF-268 CNS
SK-MEL-28 melanoma = test system: SK-MEL-28 melanoma
MDA-MB-231 breast = test system: MDA-MB-231 breast
UACC-62 melanoma = test system: UACC-62 melanoma
CCRF-CEM leukemia = test system: CCRF-CEM leukemia
BT-549 breast = test system: BT-549 breast
SK-OV-3 ovarian = test system: SK-OV-3 ovarian
NCI-H460 lung = test system: NCI-H460 lung
HS 578T breast = test system: HS 578T breast
HCT-116 colon = test system: HCT-116 colon
OVCAR-3 ovarian = test system: OVCAR-3 ovarian
TK-10 renal = test system: TK-10 renal
786-0 renal = test system: 786-0 renal
SNB-19 CNS = test system: SNB-19 CNS
OVCAR-4 ovarian = test system: OVCAR-4 ovarian
RXF 393 renal = test system: RXF 393 renal
NCI-H23 lung = test system: NCI-H23 lung
SF-295 CNS = test system: SF-295 CNS
SK-MEL-5 melanoma = test system: SK-MEL-5 melanoma
HOP-62 NSCLC = test system: HOP-62 NSCLC
OVCAR-5 ovarian = test system: OVCAR-5 ovarian
UO-31 renal = test system: UO-31 renal
NCI-H522 lung = test system: NCI-H522 lung
NCI/ADR-RES ovarian = test system: NCI/ADR-RES ovarian
MDA-MB-435 = test system: MDA-MB-435
T-47D breast = test system: T-47D breast
K-562 leukemia = test system: K-562 leukemia
SK-MEL-2 melanoma = test system: SK-MEL-2 melanoma
IGROV1 ovarian = test system: IGROV1 ovarian
HL-60(TB) leukemia = test system: HL-60(TB) leukemia
MOLT-4 leukemia = test system: MOLT-4 leukemia
COLO 205 colon = test system: COLO 205 colon
CAKI-1 renal = test system: CAKI-1 renal
SN12C renal = test system: SN12C renal
DU-145 prostate = test system: DU-145 prostate
EKVX NSCLC = test system: EKVX NSCLC
NCI-H226 lung = test system: NCI-H226 lung
SR leukemia = test system: SR leukemia
MALME-3M melanoma = test system: MALME-3M melanoma
PC-3 prostate = test system: PC-3 prostate
A549 NSCLC = test system: A549 NSCLC
SW-620 colon = test system: SW-620 colon
A498 renal = test system: A498 renal
OVCAR-8 ovarian = test system: OVCAR-8 ovarian
MCF7 breast = test system: MCF7 breast
UACC-257 melanoma = test system: UACC-257 melanoma
KM12 colon = test system: KM12 colon
SF-539 CNS = test system: SF-539 CNS
ACHN renal = test system: ACHN renal
M14 melanoma = test system: M14 melanoma
SNB-75 CNS = test system: SNB-75 CNS
LOX IMVI melanoma = test system: LOX IMVI melanoma
HCC-2998 colon = test system: HCC-2998 colon
U251 CNS = test system: U251 CNS
HOP-92 NSCLC = test system: HOP-92 NSCLC
RPMI-8226 leukemia = test system: RPMI-8226 leukemia
HT29 colon = test system: HT29 colon
HCT-15 colon = test system: HCT-15 colon

`Cc1ccc(/C(=C/C=C(C#N)C#N)Sc2nc3ccccc3s2)cc1` showed a GI50 (SF-268 CNS) of 5.81 µM, a TGI (SF-268 CNS) of 22.1 µM and a GI50 (SK-MEL-28 melanoma) of 5.14 µM. The TGI (SK-MEL-28 melanoma) was 23.9 µM, the GI50 (MDA-MB-231 breast) was 2180 nM and the TGI (MDA-MB-231 breast) was 5.56 µM. For the same molecule, the GI50 (UACC-62 melanoma) was 2600 nM, the TGI (UACC-62 melanoma) was 6.22 µM and the GI50 (CCRF-CEM leukemia) was 465 nM. For the same molecule, the TGI (CCRF-CEM leukemia) was 3.02 µM, the GI50 (BT-549 breast) was 793 nM and the TGI (BT-549 breast) was 3.65 µM. For the same molecule, the GI50 (SK-OV-3 ovarian) was 14.1 µM, the TGI (SK-OV-3 ovarian) was 30 µM and the GI50 (NCI-H460 lung) was 18.3 µM. For the same molecule, the TGI (NCI-H460 lung) was 75.3 µM, the GI50 (HS 578T breast) was 9.86 µM and the TGI (HS 578T breast) was 56.1 µM. For the same molecule, the GI50 (HCT-116 colon) was 2470 nM, the TGI (HCT-116 colon) was 6.3 µM and the GI50 (OVCAR-3 ovarian) was 4.49 µM. For the same molecule, the TGI (OVCAR-3 ovarian) was 19 µM, the GI50 (TK-10 renal) was 2420 nM and the TGI (TK-10 renal) was 6.37 µM. It also gave a GI50 (786-0 renal) of 2430 nM, a TGI (786-0 renal) of 6.78 µM and a GI50 (SNB-19 CNS) of 14.8 µM. The TGI (SNB-19 CNS) was 34.1 µM, the GI50 (OVCAR-4 ovarian) was 6.68 µM and the TGI (OVCAR-4 ovarian) was 87.6 µM. It also gave a GI50 (RXF 393 renal) of 3.78 µM, a TGI (RXF 393 renal) of 13.8 µM and a GI50 (NCI-H23 lung) of 3.36 µM. For the same molecule, the TGI (NCI-H23 lung) was 11.6 µM, the GI50 (SF-295 CNS) was 5.77 µM and the TGI (SF-295 CNS) was 21 µM. For the same molecule, the GI50 (SK-MEL-5 melanoma) was 13.3 µM, the TGI (SK-MEL-5 melanoma) was 26.6 µM and the GI50 (HOP-62 NSCLC) was 10.1 µM. The TGI (HOP-62 NSCLC) was 30.3 µM, the GI50 (OVCAR-5 ovarian) was 24.1 µM and the TGI (OVCAR-5 ovarian) was 42.1 µM. For the same molecule, the GI50 (UO-31 renal) was 3.41 µM, the TGI (UO-31 renal) was 22.5 µM and the GI50 (NCI-H522 lung) was 7.36 µM. The TGI (NCI-H522 lung) was 32.9 µM, the GI50 (NCI/ADR-RES ovarian) was 4.24 µM and the TGI (NCI/ADR-RES ovarian) was 18.7 µM. It also gave a GI50 (MDA-MB-435) of 3.54 µM, a TGI (MDA-MB-435) of 13.1 µM and a GI50 (T-47D breast) of 5.2 µM. It also gave a TGI (T-47D breast) of 35.7 µM, a GI50 (K-562 leukemia) of 6.25 µM and a TGI (K-562 leukemia) of over 100 µM. For the same molecule, the GI50 (SK-MEL-2 melanoma) was 4.95 µM, the TGI (SK-MEL-2 melanoma) was 27.1 µM and the GI50 (IGROV1 ovarian) was 4.78 µM. For the same molecule, the TGI (IGROV1 ovarian) was 29.8 µM, the GI50 (HL-60(TB) leukemia) was 7.02 µM and the TGI (HL-60(TB) leukemia) was over 100 µM. The GI50 (MOLT-4 leukemia) was over 100 µM, the TGI (MOLT-4 leukemia) was over 100 µM and the GI50 (COLO 205 colon) was 3.84 µM. The TGI (COLO 205 colon) was 16 µM, the GI50 (CAKI-1 renal) was 2720 nM and the TGI (CAKI-1 renal) was 8.35 µM. It also gave a GI50 (SN12C renal) of 1980 nM, a TGI (SN12C renal) of 4.55 µM and a GI50 (DU-145 prostate) of 4.18 µM. It also gave a TGI (DU-145 prostate) of 14.5 µM, a GI50 (EKVX NSCLC) of 17.7 µM and a TGI (EKVX NSCLC) of 39.4 µM. It also gave a GI50 (NCI-H226 lung) of 3.5 µM, a TGI (NCI-H226 lung) of 8.01 µM and a GI50 (SR leukemia) of over 100 µM. The TGI (SR leukemia) was over 100 µM, the GI50 (MALME-3M melanoma) was 2520 nM and the TGI (MALME-3M melanoma) was 6.57 µM. It also gave a GI50 (PC-3 prostate) of 2250 nM, a TGI (PC-3 prostate) of 6.52 µM and a GI50 (A549 NSCLC) of 19.8 µM. For the same molecule, the TGI (A549 NSCLC) was 45.5 µM, the GI50 (SW-620 colon) was 2420 nM and the TGI (SW-620 colon) was 5.73 µM. For the same molecule, the GI50 (A498 renal) was 20.9 µM, the TGI (A498 renal) was 35.9 µM and the GI50 (OVCAR-8 ovarian) was 4.35 µM. For the same molecule, the TGI (OVCAR-8 ovarian) was 65.6 µM, the GI50 (MCF7 breast) was 4.3 µM and the TGI (MCF7 breast) was 32.7 µM. It also gave a GI50 (UACC-257 melanoma) of 12.1 µM, a TGI (UACC-257 melanoma) of 27.3 µM and a GI50 (KM12 colon) of 4.72 µM. The TGI (KM12 colon) was 28.9 µM, the GI50 (SF-539 CNS) was 4.77 µM and the TGI (SF-539 CNS) was 20.8 µM.

`CCCC(C(=O)Nc1cccc2[nH]cnc12)C(=O)OCC` (configuration not stated) gave a TGI (SF-268 CNS) of over 100 µM, a TGI (SK-MEL-28 melanoma) of over 100 µM and a TGI (MDA-MB-231 breast) of over 100 µM. The TGI (UACC-62 melanoma) was over 100 µM, the TGI (BT-549 breast) was over 100 µM and the TGI (SK-OV-3 ovarian) was over 100 µM. It also gave a TGI (NCI-H460 lung) of over 100 µM, a TGI (HS 578T breast) of over 100 µM and a TGI (HCT-116 colon) of over 100 µM. The TGI (OVCAR-3 ovarian) was over 100 µM, the TGI (ACHN renal) was over 100 µM and the TGI (TK-10 renal) was over 100 µM. The TGI (786-0 renal) was over 100 µM, the TGI (SNB-19 CNS) was over 100 µM and the TGI (M14 melanoma) was over 100 µM. The TGI (OVCAR-4 ovarian) was over 100 µM, the TGI (SNB-75 CNS) was over 100 µM and the TGI (LOX IMVI melanoma) was over 100 µM. The TGI (HCC-2998 colon) was over 100 µM, the TGI (U251 CNS) was over 100 µM and the TGI (SF-295 CNS) was over 100 µM. For the same molecule, the TGI (HOP-62 NSCLC) was over 100 µM, the TGI (OVCAR-5 ovarian) was over 100 µM and the TGI (UO-31 renal) was over 100 µM. For the same molecule, the TGI (NCI-H522 lung) was over 100 µM, the TGI (NCI/ADR-RES ovarian) was over 100 µM and the TGI (MDA-MB-435) was over 100 µM. The TGI (T-47D breast) was over 100 µM, the TGI (K-562 leukemia) was over 100 µM and the TGI (SK-MEL-2 melanoma) was over 100 µM. The TGI (HOP-92 NSCLC) was over 100 µM, the TGI (IGROV1 ovarian) was over 100 µM and the TGI (HL-60(TB) leukemia) was over 100 µM. For the same molecule, the TGI (MOLT-4 leukemia) was over 100 µM, the TGI (RPMI-8226 leukemia) was over 100 µM and the TGI (SN12C renal) was over 100 µM. The TGI (DU-145 prostate) was over 100 µM, the TGI (EKVX NSCLC) was over 100 µM and the TGI (NCI-H226 lung) was over 100 µM. It also gave a TGI (SR leukemia) of over 100 µM, a TGI (PC-3 prostate) of over 100 µM and a TGI (A549 NSCLC) of over 100 µM. It also gave a TGI (HT29 colon) of over 100 µM, a TGI (SW-620 colon) of over 100 µM and a TGI (A498 renal) of over 100 µM. It also gave a TGI (HCT-15 colon) of over 100 µM, a TGI (OVCAR-8 ovarian) of over 100 µM and a TGI (MCF7 breast) of over 100 µM. For the same molecule, the TGI (UACC-257 melanoma) was over 100 µM, the TGI (KM12 colon) was over 100 µM and the TGI (SF-539 CNS) was over 100 µM.

Reference: PubChem BioAssay (NCI)
